The test system of test [1] is Cal27. As to the kind of experiment: MTT antiproliferative assay, Cal27. It counts as cell-based, human. To be noted: Homo sapiens, CAL-27, 48 h, mean ± SD. (In general: Tetrazolium assays rely on reduction of a dye to a coloured formazan, in cell work by metabolically active cells.)
In test [2] the target is T1, Topo I (Homo sapiens, UniProt P11387).
T1 sequence (P11387 1-765): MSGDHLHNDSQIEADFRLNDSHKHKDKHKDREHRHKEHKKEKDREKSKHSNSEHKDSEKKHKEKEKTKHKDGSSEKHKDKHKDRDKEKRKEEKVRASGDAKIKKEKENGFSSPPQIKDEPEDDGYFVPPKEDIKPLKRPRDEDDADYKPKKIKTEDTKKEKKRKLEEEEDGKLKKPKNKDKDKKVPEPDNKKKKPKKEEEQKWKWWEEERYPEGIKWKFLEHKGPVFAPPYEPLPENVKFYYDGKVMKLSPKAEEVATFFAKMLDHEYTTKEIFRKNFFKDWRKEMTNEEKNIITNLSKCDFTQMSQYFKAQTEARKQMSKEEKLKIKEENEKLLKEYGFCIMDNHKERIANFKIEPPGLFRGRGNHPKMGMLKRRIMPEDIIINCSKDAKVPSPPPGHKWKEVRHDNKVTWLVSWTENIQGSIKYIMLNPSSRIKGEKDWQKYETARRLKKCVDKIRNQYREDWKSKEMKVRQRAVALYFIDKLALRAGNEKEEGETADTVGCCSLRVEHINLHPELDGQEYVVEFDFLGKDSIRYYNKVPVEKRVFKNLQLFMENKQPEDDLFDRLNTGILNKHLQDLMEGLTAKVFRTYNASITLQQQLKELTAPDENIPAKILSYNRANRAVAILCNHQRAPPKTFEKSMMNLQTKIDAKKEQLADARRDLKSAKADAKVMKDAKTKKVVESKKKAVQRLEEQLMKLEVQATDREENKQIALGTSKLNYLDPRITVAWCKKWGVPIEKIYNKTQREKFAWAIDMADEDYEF
As to the kind of experiment: Cellular thermal shift assay (CETSA). It counts as cell-based. Also noted: endogenous in cells; host or cells: Cal27. The conditions noted are these: 8 μM. As for the experimental part:
For intact cell assays, Cal27 cells were treated with compound 7be (8 μM) for 3 h before collection and washing several times with PBS buffer to avoid excess compound residues. Each cell suspension was dispensed into different 0.2 mL PCR tubes and then denatured for 3 min at different temperatures on a PCR instrument, and the cells were freeze-thawed twice with liquid nitrogen. After centrifugation, the supernatant was collected, mixed with an appropriate amount of up-sampling buffer and boiled at 95 °C for 6 min. The supernatant was detected by Western blot. For cell lysate experiments, Cal27 cells were collected with RIPA lysis buffer. Then compound 7be (8 μM) was added to the supernatant and incubated at 25 °C for 2 h. After denaturation at different temperatures for 3 min, centrifugation was performed before collecting the supernatant, mixing with an appropriate amount of lysing buffer and boiling at 95 °C for 6 min, and then Western blot was performed to detect the supernatant.

Test [3] relates to MGC-803. As to the kind of experiment: MTT antiproliferative assay, MGC-803. It counts as cell-based, human. The conditions noted are these: Homo sapiens, MGC-803, 48 h, mean ± SD.
The subject of test [4] is Bax, Bcl-2, Cleaved PARP1/PARP1 in Cal27 cells. As to the kind of experiment: Western blot of apoptosis-related proteins. The test is classed as cell-based, human. As to the method:
(§1) After Cal27 cells had been treated with the desired concentration of each drug for 24 h, the cells were collected and the total protein was extracted. The cells were then separated on a gel of appropriate concentration and transferred to a PVDF membrane. After blocking with milk, the membrane was incubated with primary antibody at 4 °C overnight. Subsequently, the membrane was incubated with horseradish peroxidase-coupled secondary antibody for 2 h. Finally, the protein bands were used to detect the immunoreactive signal using an enhanced chemiluminescence kit.
For orientation: A western blot detects proteins with antibodies after separation by electrophoresis.

Test [5] deals with PI3K/AKT/NF-κB pathway. As to the kind of experiment: Western blot of PI3K/AKT/NF-κB signaling pathway in Cal27 cells. The test is classed as cell-based, human. The conditions noted are these: Cal27, 24 h. As for the experimental part: as §1
The target of test [6] is T1, Topo I. The experiment in a line: Topo I inhibitory activity, agarose gel electrophoresis (pBR322). It counts as biochemical. As to the method: In this assay, 250 ng of pBR322 plasmid DNA, different concentrations of the compounds to be tested, 0.1% BSA 1 μL, 10× Topo I buffer, Topo I and add 1× TAE buffer were mixed to a final volume of 20 μL. The reaction was carried out for 30 min at 37 °C in a water bath. After the reaction was terminated, 4 μL of each of the 6× DNA Sampling Buffers were added to the gel. The pBR322 plasmid DNA alone was used as a negative control, and camptothecin was used as a positive control. Finally, the samples were loaded onto the gels and electrophoresed for about 1.5 h. After electrophoresis, the gel blocks were incubated in 1 mg/L ethidium bromide (EB) for 30 min and then visualized on the gel system.

Test [7] concerns SV-HUC-1. The experiment in a line: MTT assay, normal cell line SV-HUC-1. It counts as cell-based. To be noted: SV-HUC1, 48 h, mean ± SD.
For test [8], the system named is A549. The experiment in a line: MTT antiproliferative assay, A549. It counts as cell-based, human. To be noted: Homo sapiens, A549, 48 h, mean ± SD.
Test [9] deals with Cal27 cells. As to the kind of experiment: MDC staining for autophagy. It counts as cell-based, human. The conditions noted are these: 24 h. As for the experimental part:
In order to determine whether compound 7be induced autophagy, Cal27 cells were incubated with compound 7be at different concentrations for 24 h. MDC staining was used to detect any MDC-positive vesicles in cells of Cal27 cells by confocal microscope (Figure 13a).

SMILES strings stand for the structures.

What is called IC50 is the point on the concentration scale where inhibition reaches its midpoint. High values mean weaker potency in that assay, low ones greater potency in that assay. Turning to `Cc1cc(C)c2c(n1)S(=O)(=O)c1c-2nc(NCCN2CCCCC2)c2ccccc12` [7be, 7,9-Dimethyl-5-((2-(piperidin-1-yl)ethyl)amino) pyrido[3′,2′:4,5]thieno[3,2-c]isoquinoline 11,11-dioxide], the IC50 in test [1] is 1120 ± 220 nM; in [3] it was 1690 ± 240 nM; in [7] it was 5180 ± 1770 nM; in [8], 3320 ± 1900 nM. Also, the “thermal stability of Topo I protein, cell lysate” value in test [2] (Cal27 lysate, 2 h, especially 52 to 56 °C) is “increased”. In test [2] (intact Cal27 cells, 3 h), the “thermal stability of Topo I protein, intact cells” value is reported as “increase in thermal stability”. Also, in test [4], the “Cleaved PARP1/PARP1” value is given as “up-regulated”. In addition, the “anti-apoptotic protein Bcl-2” value in test [4] was “down-regulated”. Moreover, the “pro-apoptotic protein Bax” value in test [4] was “up-regulated”. Also, the “expression and phosphorylation levels of NF-κB” value in test [5] was “decrease”. Moreover, the “expression levels of PI3K” value in [5] is given as “slightly increased”. Further, the “phosphorylation levels of PI3K and AKT” value in test [5] is reported as “significantly repressed”. Further, the “Topo I inhibitory activity (in words)” value in [6] (20 μM) is given as “potent Topo I activity”. The “concentration at which the activity of Topo I was fully inhibited” value in test [6] (different concentrations) came to 20 µM. In addition, the MDC staining fluorescence result in test [9] (Cal27, high concentrations (3 μM and 4 μM)) is on record as “significant green fluorescence”; in test [9] (Cal27, low concentrations (1 μM and 2 μM)), “weak green fluorescence”.

For the origin of these results see article PMC11858653, “Design, Synthesis and Bioactive Evaluation of Topo I/c-MYC Dual Inhibitors to Inhibit Oral Cancer via Regulating the PI3K/AKT/NF-κB Signaling Pathway” (Molecules, 2025).
